The subject of this assay is Influenza A/WSN/33 (H1N1) virus. The assay is described as follows: In vitro anti-influenza virus assay (neutralization test), cytopathic effect on MDCK cells. The assay is classed as cell-based. The note with it: MDCK cells, 72 h, read-out: IC50 (concentration reducing virus-induced cytopathic effect by 50%). How it is done: Anti-influenza activities of the coumarin compounds were evaluated by measuring the ability of a test compound to inhibit the cytopathic effect induced by an influenza virus on MDCK cells. The 96-well tissue culture plates were seeded with 200 μL of MDCK cells at a concentration of 1.1×10^5 cells/mL in DMEM with 10% fetal bovine serum (FBS). The plates were incubated for 24-30 h at 37° C. and were used at about 90% confluency. Influenza A/WSN/33 (H1N1) virus (100 TCID50) was added to the cells and incubated at 35° C. for 1 h. After adsorption, the infected cell plates were overlaid with 50 μL of DMEM plus 2% FBS and a test compound with different concentrations. The plate was incubated at 35° C. for 72 h. At the end of incubation, the plates were fixed by the addition of 100 μL of 4% formaldehyde for 1 h at room temperature. After the removal of formaldehyde, the plates were stained with 0.1% crystal violet for 15 min at room temperature. The plates were washed and dried, and the density of the well was measured at 570 nm. The concentration required for a test compound to reduce the virus-induced cytopathic effect (CPE) by 50% relative to the virus control was expressed as IC50.
Compounds 1 and 95 were also tested on various influenza virus strains. Amantadine or Relenza was also tested for comparison. IC50 is defined as the concentration required for a test compound to reduce the virus-induced cytopathic effect (CPE) by 50% relative to the virus control.

The mark [1] stands for this setting: lower bound (10 nM), upper in μM.

Structures are written as SMILES. Where two headings read alike, the source gives them in different places.

As for `O=C(c1ccccc1)c1oc2ccc3ccc(=O)oc3c2c1-c1ccccc1` [Compound 2], the IC50 (ranges given) lay within 6000 to 25000 nM. For `Cc1cc2ccc3oc(C(=O)c4ccccc4)c(-c4ccccc4)c3c2oc1=O` [Compound 3], the IC50 (ranges given) was in the range of 1000 to 5900 nM. On the same count and under the same terms, under `Cc1cc2oc(C(=O)c3ccccc3)c(-c3ccccc3)c2c2oc(=O)ccc12` [Compound 4] stands 6000 to 25000 nM. For the compound `Cc1c(C)c2ccc3oc(C(=O)c4ccccc4)c(-c4ccccc4)c3c2oc1=O` [Compound 6], the IC50 under setting [1] is 10 to 999 nM. For `CCc1cc(=O)oc2c1ccc1oc(C(=O)c3ccccc3)c(-c3ccccc3)c12` [Compound 9], under setting [1], the IC50 was 10 to 999 nM. Regarding `O=Cc1cc(=O)oc2c1ccc1oc(C(=O)c3ccccc3)c(-c3ccccc3)c12` [Compound 10], the IC50 (ranges given) was in the range of 1000 to 5900 nM. Regarding `O=C(c1ccccc1)c1oc2ccc3c(C(F)(F)F)cc(=O)oc3c2c1-c1ccccc1` [Compound 11], the IC50 under setting [1] lay in the range of 10 to 999 nM. For the compound `CCCc1cc(=O)oc2c1ccc1oc(C(=O)c3ccccc3)c(-c3ccccc3)c12` [Compound 14], the IC50 under setting [1] lay in the range of 10 to 999 nM. Consider `Cc1cc(=O)oc2c1cc(CC1CO1)c1oc(C(=O)c3ccccc3)c(-c3ccccc3)c12` (centres unmarked) [Compound 18], for which the IC50 (ranges given) was 1000 to 5900 nM. In the case of `O=C(c1ccccc1)c1oc2ccc3c4c(c(=O)oc3c2c1-c1ccccc1)CCC4` [Compound 20], the IC50 under setting [1] fell in the range of 10 to 999 nM. On to `O=C(c1ccccc1)c1oc2ccc3c4ccccc4c(=O)oc3c2c1-c1ccccc1` [Compound 22], for which the IC50 (ranges given) fell in the range of 6000 to 25000 nM. As to `Cc1cc(=O)oc2c1ccc1sc(C(=O)c3ccccc3)c(-c3ccccc3)c12` [Compound 26], the IC50 under setting [1] lay in the range of 10 to 999 nM. Consider `COc1ccccc1C(=O)c1oc2ccc3c(C)cc(=O)oc3c2c1-c1ccccc1` [Compound 30], for which, under setting [1], the IC50 was in the range of 10 to 999 nM.

For `COc1cccc(C(=O)c2oc3ccc4c(C)cc(=O)oc4c3c2-c2ccccc2)c1` [Compound 31], the IC50 under setting [1] lay within 10 to 999 nM.

With `COc1ccc(C(=O)c2oc3ccc4c(C)cc(=O)oc4c3c2-c2ccccc2)cc1` [Compound 32], for the setting “ranges given”, the IC50 was 1000 to 5900 nM. Consider `Cc1cc(=O)oc2c1ccc1oc(C(=O)c3ccc(O)cc3)c(-c3ccccc3)c12` [Compound 34], for which the IC50 (ranges given) fell in the range of 1000 to 5900 nM.

For the compound `Cc1cc(=O)oc2c1ccc1oc(C(=O)c3cccc(C(F)(F)F)c3)c(-c3ccccc3)c12` [Compound 36], the IC50 under setting [1] fell in the range of 10 to 999 nM.

`Cc1ccccc1C(=O)c1oc2ccc3c(C)cc(=O)oc3c2c1-c1ccccc1` [Compound 39]: the IC50 (ranges given) lay within 6000 to 25000 nM. Regarding `Cc1cccc(C(=O)c2oc3ccc4c(C)cc(=O)oc4c3c2-c2ccccc2)c1` [Compound 40], the IC50 under setting [1] is 10 to 999 nM.

On to `Cc1ccc(C(=O)c2oc3ccc4c(C)cc(=O)oc4c3c2-c2ccccc2)cc1` [Compound 41], for which the IC50 under setting [1] was 10 to 999 nM. Consider `Cc1cc(=O)oc2c1ccc1oc(C(=O)c3cccc(C#N)c3)c(-c3ccccc3)c12` [Compound 42], for which, under “ranges given”, the IC50 was 1000 to 5900 nM. As for `Cc1cc(=O)oc2c1ccc1oc(C(=O)c3ccccc3F)c(-c3ccccc3)c12` [Compound 44], under setting [1], the IC50 lay within 10 to 999 nM. On the same count and under the same terms, under `Cc1cc(=O)oc2c1ccc1oc(C(=O)c3ccc(F)cc3)c(-c3ccccc3)c12` [Compound 46] stands 10 to 999 nM. As for `Cc1cc(=O)oc2c1ccc1oc(C(=O)c3ccccc3Cl)c(-c3ccccc3)c12` [Compound 47], under setting [1], the IC50 lay within 10 to 999 nM.

`Cc1cc(=O)oc2c1ccc1oc(C(=O)c3cccc(Cl)c3)c(-c3ccccc3)c12` [Compound 48]: the IC50 under setting [1] is 10 to 999 nM. With `Cc1cc(=O)oc2c1ccc1oc(C(=O)c3ccc(Cl)cc3)c(-c3ccccc3)c12` [Compound 49], for the setting “ranges given”, the IC50 was 6000 to 25000 nM. For the compound `Cc1cc(=O)oc2c1ccc1oc(C(=O)c3ccc([N+](=O)[O-])cc3)c(-c3ccccc3)c12` [Compound 51], the IC50 (ranges given) is 6000 to 25000 nM. In the case of `Cc1cc(=O)oc2c1ccc1oc(C(=O)c3ccc4ccccc4c3)c(-c3ccccc3)c12` [Compound 54], under setting [1], the IC50 was in the range of 10 to 999 nM. Turning to `COc1ccc(C(=O)c2oc3ccc4c(C)cc(=O)oc4c3c2-c2ccccc2)c(OC)c1` [Compound 56], the IC50 (ranges given) lay within 6000 to 25000 nM. As for `Cc1cc(=O)oc2c1ccc1oc(C(=O)c3ccc(Cl)c(Cl)c3)c(-c3ccccc3)c12` [Compound 58], the IC50 (ranges given) lay in the range of 1000 to 5900 nM.

For the compound `Cc1cc(=O)oc2c1ccc1oc(C(=O)c3ccc(F)cc3F)c(-c3ccccc3)c12` [Compound 59], the IC50 under setting [1] was 10 to 999 nM. Same read-out and setting: under `Cc1cc(=O)oc2c1ccc1oc(C(=O)c3ccc(F)c(F)c3)c(-c3ccccc3)c12` [Compound 60] stands 10 to 999 nM; under `Cc1cc(=O)oc2c1ccc1oc(C(=O)c3cc(F)ccc3F)c(-c3ccccc3)c12` [Compound 61], 10 to 999 nM.

Take `Cc1cc(=O)oc2c1ccc1oc(C(=O)c3cccc([N+](=O)[O-])c3)c(-c3ccccc3)c12` [Compound 66]: the IC50 (ranges given) lay within 1000 to 5900 nM. On the same count and under the same terms, under `Cc1cc(=O)oc2c1ccc1oc(C(=O)c3cccc(N)c3)c(-c3ccccc3)c12` [Compound 67] stands 1000 to 5900 nM. Turning to `CCOc1cccc(C(=O)c2oc3ccc4c(C)cc(=O)oc4c3c2-c2ccccc2)c1` [Compound 68], the IC50 under setting [1] is 10 to 999 nM.

As to `CCCOc1cccc(C(=O)c2oc3ccc4c(C)cc(=O)oc4c3c2-c2ccccc2)c1` [Compound 69], under setting [1], the IC50 is 10 to 999 nM. On to `CCCCOc1cccc(C(=O)c2oc3ccc4c(C)cc(=O)oc4c3c2-c2ccccc2)c1` [Compound 70], for which, under setting [1], the IC50 lay within 10 to 999 nM. With `CCCCCOc1cccc(C(=O)c2oc3ccc4c(C)cc(=O)oc4c3c2-c2ccccc2)c1` [Compound 71], under setting [1], the IC50 lay within 10 to 999 nM. On the same count and under the same terms, under `CCCCCCOc1cccc(C(=O)c2oc3ccc4c(C)cc(=O)oc4c3c2-c2ccccc2)c1` [Compound 72] stands 10 to 999 nM.

For `Cc1cc(=O)oc2c1ccc1oc(C(=O)c3cccc(OCCCl)c3)c(-c3ccccc3)c12` [Compound 73], the IC50 (ranges given) was 1000 to 5900 nM. As to `Cc1cc(=O)oc2c1ccc1oc(C(=O)c3cccc(OCCCCl)c3)c(-c3ccccc3)c12` [Compound 74], under setting [1], the IC50 lay in the range of 10 to 999 nM. Same read-out and setting: under `Cc1cc(=O)oc2c1ccc1oc(C(=O)c3cccc(OCCCCCl)c3)c(-c3ccccc3)c12` [Compound 75] stands 10 to 999 nM; under `C=CCOc1cccc(C(=O)c2oc3ccc4c(C)cc(=O)oc4c3c2-c2ccccc2)c1` [Compound 76], 10 to 999 nM; under `C=CCCOc1cccc(C(=O)c2oc3ccc4c(C)cc(=O)oc4c3c2-c2ccccc2)c1` [Compound 77], 10 to 999 nM.

As for `C=CCCCOc1cccc(C(=O)c2oc3ccc4c(C)cc(=O)oc4c3c2-c2ccccc2)c1` [Compound 78], the IC50 under setting [1] lay in the range of 10 to 999 nM. For the compound `C=CCCCCOc1cccc(C(=O)c2oc3ccc4c(C)cc(=O)oc4c3c2-c2ccccc2)c1` [Compound 79], the IC50 under setting [1] was in the range of 10 to 999 nM.

For the compound `Cc1cc(=O)oc2c1ccc1oc(C(=O)c3cccc(OCCN4CCOCC4)c3)c(-c3ccccc3)c12` [Compound 80], the IC50 (ranges given) was 1000 to 5900 nM. For the compound `Cc1cc(=O)oc2c1ccc1oc(C(=O)c3cccc(OCCCN4CCOCC4)c3)c(-c3ccccc3)c12` [Compound 81], under “ranges given”, the IC50 fell in the range of 1000 to 5900 nM. On the same count and under the same terms, under `Cc1cc(=O)oc2c1ccc1oc(C(=O)c3cccc(OCCCCN4CCOCC4)c3)c(-c3ccccc3)c12` [Compound 82] stands 1000 to 5900 nM; under `Cc1cc(=O)oc2c1ccc1oc(C(=O)c3cccc(OCCCN4CCCCC4)c3)c(-c3ccccc3)c12` [Compound 84], 6000 to 25000 nM. Regarding `Cc1cc(=O)oc2c1ccc1oc(C(=O)c3cccc(OCCN(C)C)c3)c(-c3ccccc3)c12` [Compound 86], the IC50 (ranges given) lay within 6000 to 25000 nM. Still for that read-out and setting: under `Cc1cc(=O)oc2c1ccc1oc(C(=O)c3cccc(OCCCN(C)C)c3)c(-c3ccccc3)c12` [Compound 87] stands 6000 to 25000 nM. As to `Cc1cc(=O)oc2c1ccc1oc(C(=O)c3ccco3)c(-c3ccccc3)c12` [Compound 92], the IC50 under setting [1] was 10 to 999 nM.

Consider `Cc1ccc(C(=O)c2oc3ccc4c(C)cc(=O)oc4c3c2-c2ccccc2)o1` [Compound 94], for which the IC50 (ranges given) fell in the range of 6000 to 25000 nM. Take `Cc1cc(=O)oc2c1ccc1oc(C(=O)c3ccsc3)c(-c3ccccc3)c12` [Compound 96]: under setting [1], the IC50 fell in the range of 10 to 999 nM. As to `Cc1cc(=O)oc2c1ccc1oc(C(=O)c3cc(Cl)sc3Cl)c(-c3ccccc3)c12` [Compound 97], where the note is “ranges given”, the IC50 fell in the range of 1000 to 5900 nM. In the case of `Cc1cc(=O)oc2c1ccc1oc(C(=O)c3ccc(Br)s3)c(-c3ccccc3)c12` [Compound 98], the IC50 under setting [1] is 10 to 999 nM. The same measure, in the same setting: in the case of `Cc1ccsc1C(=O)c1oc2ccc3c(C)cc(=O)oc3c2c1-c1ccccc1` [Compound 100] it was 10 to 999 nM. Still for that read-out and setting: in the case of `Cc1cc(=O)oc2c1ccc1oc(C(=O)c3nccs3)c(-c3ccccc3)c12` [Compound 107] it was 10 to 999 nM; in that of `Cc1cc(=O)oc2c1ccc1oc(C(=O)c3ccccn3)c(-c3ccccc3)c12` [Compound 115], 10 to 999 nM.

For the compound `Cc1cc(=O)oc2c1ccc1oc(C(=O)c3ccccc3)c(-c3ccccc3F)c12` [Compound 132], under setting [1], the IC50 fell in the range of 10 to 999 nM. With `Cc1cc(=O)oc2c1ccc1oc(C(=O)c3ccccc3)c(-c3cccc(F)c3)c12` [Compound 133], the IC50 (ranges given) lay within 1000 to 5900 nM. `Cc1cc(=O)oc2c1ccc1oc(C(=O)c3ccccc3)c(-c3ccccc3Cl)c12` [Compound 135]: under setting [1], the IC50 lay within 10 to 999 nM. For the compound `Cc1cc(=O)oc2c1ccc1oc(C(=O)c3ccccc3)c(-c3cccc(Cl)c3)c12` [Compound 136], the IC50 (ranges given) lay in the range of 1000 to 5900 nM.

The record behind these values is patent US20090312406A1, “COUMARIN COMPOUNDS AND THEIR USE FOR TREATING VIRAL INFECTION” (priority 2008, published 2009).
